Results reported in ChEMBL document CHEMBL1130324, “Exceptionally potent antispermatogenic compounds from 8-halogenation of (4aRS,5SR,9bRS)-hexahydroindeno-[1,2-c]pyridines” (1997).

Experiments:
Format in all cases: functional
Mus musculus [1] = experiment: Spermatogenic index (percent change from vehicle control) was calculated in Adult Male Swiss Mice at 25 (umol/kg) dose
Mus musculus [2] = experiment: Spermatogenic index (percent change from vehicle control) was calculated in Adult Male Swiss Mice at 75 (umol/kg) dose
Mus musculus [3] = experiment: Spermatogenic index (percent change from vehicle control) was calculated in Adult Male Swiss Mice at 8 (umol/kg) dose
Mus musculus [4] = experiment: Spermatogenic index (percent change from vehicle control) was calculated in Adult Male Swiss Mice at 3 (umol/kg) dose
Mus musculus [5] = experiment: Spermatogenic index (percent change from vehicle control) was calculated in Adult Male Swiss Mice at 20 (umol/kg) dose
Mus musculus [6] = experiment: Spermatogenic index (percent change from vehicle control) was calculated in Adult Male Swiss Mice at 6 (umol/kg) dose
Mus musculus [7] = experiment: Spermatogenic index (percent change from vehicle control) was calculated in Adult Male Swiss Mice at 2 (umol/kg) dose
Mus musculus [8] = experiment: Spermatogenic index (percent change from vehicle control) was calculated in Adult Male Swiss Mice at 62 (umol/kg) dose
Mus musculus [9] = experiment: Spermatogenic index (percent change from vehicle control) was calculated in Adult Male Swiss Mice at 21 (umol/kg) dose
Mus musculus [10] = experiment: Spermatogenic index (percent change from vehicle control) was calculated in Adult Male Swiss Mice at 7 (umol/kg) dose
Mus musculus [11] = experiment: Spermatogenic index (percent change from vehicle control) was calculated in Adult Male Swiss Mice at 0.6 (umol/kg) dose
Mus musculus [12] = experiment: Spermatogenic index (percent change from vehicle control) was calculated in Adult Male Swiss Mice at 19 (umol/kg) dose
Mus musculus [13] = experiment: Spermatogenic index (percent change from vehicle control) was calculated in Adult Male Swiss Mice at 26 (umol/kg) dose
Mus musculus [14] = experiment: Spermatogenic index (percent change from vehicle control) was calculated in Adult Male Swiss Mice 79 (umol/kg) dose

## CCN1CC[C@H]2[C@H](c3ccc(C(=O)OC)cc3)c3cc(C)ccc3[C@H]2C1
Mus musculus [1]
  SI: -33%
Mus musculus [2]
  SI: -64%
Mus musculus [3]
  SI: -2%
Mus musculus [4]
  SI: 3%

## CCN1CC[C@H]2[C@H](c3ccc(C(=O)OC)cc3)c3cc(C)c(I)cc3[C@H]2C1 (stereo in doubt; 2b)
Mus musculus [5]
  SI: -74%
Mus musculus [6]
  SI: -69%
Mus musculus [7]
  SI: -57%

## CCN1CC[C@H]2[C@H](c3ccc(C(=O)O)cc3)c3cc(C)c(Br)cc3[C@H]2C1
Mus musculus [6]
  SI: -69%
Mus musculus [8]
  SI: -72%
Mus musculus [9]
  SI: -71%

## CCN1CC[C@H]2[C@H](c3ccc(C(=O)O)cc3)c3cc(C)c(I)cc3[C@H]2C1
Mus musculus [5]
  SI: -76%
Mus musculus [6]
  SI: -66%
Mus musculus [7]
  SI: -67%

## CCN1CC[C@H]2[C@H](c3ccc(C(=O)O)cc3)c3cc(C)c(Cl)cc3[C@H]2C1
Mus musculus [1]
  SI: -72%
Mus musculus [10]
  SI: -66%
Mus musculus [7]
  SI: -55%

## CCN1CC[C@H]2[C@H](c3ccc(C(=O)OC)cc3)c3cc(C)c(I)cc3[C@H]2C1 (stereo in doubt; (l)-2b)
Mus musculus [11]
  SI: -34%
Mus musculus [6]
  SI: -71%
Mus musculus [7]
  SI: -66%
Mus musculus [12]
  SI: -72%

## CCN1CC[C@H]2[C@H](c3ccc(C(=O)O)cc3)c3cc(C)ccc3[C@H]2C1
Mus musculus [13]
  SI: -24%
Mus musculus [14]
  SI: -52%
